A word on the viability: it is a read-out of living cells in per cent, often relative to untreated cells.

One series can be described thus: in vitro. As to conditions: human, hela cells, % viability.
On to `CCOc1ccc(/C=C2/NC(=O)NC2=O)cc1Br` [CBK098031], for which the viability at 28.5 h, 10 µM was 91.6%.
In the case of `NC(=O)c1ccc(-c2ccc(/C=C3/C(=O)NN(c4ccc(F)cc4)C3=O)o2)cc1` [CBK098345], the viability at 28.5 h, 10 µM was determined as 89.9%.
Regarding `Cc1ccc(N2CCN(S(=O)(=O)c3ccc(I)cc3)CC2)c(C)c1` [CBK098562], the viability at 28.5 h, 10 µM came out at 91.7%.
For `NC(=O)c1cnn(-c2cc(Oc3ccccc3)ncn2)c1N` [CBK098664], the viability at 28.5 h, 10 µM came out at 105%.
For the molecule `CSc1ccccc1-n1nnnc1SCc1ccccc1` [CBK099033], the viability at 28.5 h, 10 µM was 83%.
The same measure, in the same setting: as for `CCOc1ccccc1C(=O)Nc1ccc(O)cc1` [CBK099037], the figure is 91.8%; as for `COC(=O)c1ccc(NC(=S)NC(=O)c2cncc(Br)c2)cc1` [CBK099257], 87.9%.
Same read-out and setting: as for `CCCCOc1ccc(S(=O)(=O)N2CCN(c3cccc(C)c3C)CC2)cc1` [CBK099293], the figure is 114%.
For the molecule `Cc1ccc(Oc2cc(-n3nc(C)c(C(N)=O)c3N)ncn2)cc1` [CBK099753], the viability at 28.5 h, 10 µM came out at 95.7%.
On the same count and under the same terms, as for `COc1ccc(OC)c(NS(=O)(=O)c2ccccc2)c1` [CBK099989], the figure is 73%; as for `COc1cc(/C=C2/SC(=O)NC2=O)cc(I)c1O` [CBK100075], 92.1%.
Take `O=C(O)C1CCN(S(=O)(=O)c2ccc(F)cc2)CC1` [CBK100196]: the viability at 28.5 h, 10 µM was 102%.
Take `Cc1ccc(C)c(N2CCN(S(=O)(=O)c3ccc(-c4ccccc4)cc3)CC2)c1` [CBK100692]: the viability at 28.5 h, 10 µM was determined as 104%.
Still for that read-out and setting: as for `Cc1ccc(S(=O)(=O)N2CCCC(C(=O)O)C2)cc1` (centres unmarked) [CBK100948], the figure is 88.6%.
For `Cc1cc(C)c(-n2nnnc2SCc2ccc(F)cc2)c(C)c1` [CBK100994], the viability at 28.5 h, 10 µM was found to be 103%.
Turning to `COc1cccc(C(=O)Nc2nc(-c3ccc(C(C)C)cc3)cs2)c1` [CBK101110], the viability at 28.5 h, 10 µM was found to be 87%.
Same read-out and setting: the result for `COc1ccc(-n2c(C)c(C#N)c3cc(Br)c(O)c(Br)c32)cc1` [CBK101113] reads 91.6%; that for `CCOC(=O)c1cnn2c(C)cc(C)nc12` [CBK101119], 103%; that for `N#CC1CCCc2c1[nH]c1ccc(Cl)cc21` (centres unmarked) [CBK101438], 63.9%.
Take `O=C(O)C1CCCCN1S(=O)(=O)c1ccc(Br)cc1` (centres unmarked) [CBK101789]: the viability at 28.5 h, 10 µM came to 88.6%.
On the same count and under the same terms, the result for `Fc1ccc(-n2nnnc2SCc2ccc(Cl)cc2)cc1Cl` [CBK102075] reads 97.5%; that for `N#Cc1c(N)ncnc1-c1ccccc1` [CBK102172], 84.2%; that for `Cc1ccc(S(=O)(=O)Nc2nc(C)cs2)cc1` [CBK102326], 100%.
Consider `COc1c(Br)cc(/C=C2\SC(=O)NC2=O)cc1Br` [CBK102455], for which the viability at 28.5 h, 10 µM is 101%.
Consider `CCCc1[nH]nc(O)c1C(=O)c1c(F)cccc1Cl` [CBK103524], for which the viability at 28.5 h, 10 µM came to 103%.
On to `CCCC1=NN=C(c2cc(C(F)(F)F)ccc2C(F)(F)F)C1C(=O)OCC` (centres unmarked) [CBK103527], for which the viability at 28.5 h, 10 µM was found to be 118%.
For the molecule `COc1cc(OC)nc(CC(=O)O)n1` [CBK103537], the viability at 28.5 h, 10 µM was determined as 104%.
Take `CC[C@@H]1COCCN1C(=O)c1sc2ccccc2c1Cl` [CBK103641]: the viability at 28.5 h, 10 µM was 90.3%.
With `CC(C)Nc1nc2ccccc2nc1SCCOc1ccccc1` [CBK103668], the viability at 28.5 h, 10 µM amounted to 89.8%.
Regarding `CC(C)Nc1nc2ccccc2nc1SCCN(C)C` [CBK103672], the viability at 28.5 h, 10 µM is 115%.
Still for that read-out and setting: as for `c1ccc(OCCSc2cc(N3CCCC3)ncn2)cc1` [CBK103689], the figure is 113%; as for `FC(F)(F)c1ccnc(SCCc2ccccn2)c1` [CBK103709], 105%.
Consider `FC(F)(F)c1ccc(SCc2cccs2)nc1` [CBK103711], for which the viability at 28.5 h, 10 µM turned out to be 96.3%.
Still for that read-out and setting: as for `FC(F)(F)c1ccc(SCc2ccccc2)nc1` [CBK103715], the figure is 89.7%.
The same measure, in the same setting: as for `FC(F)(F)c1ccnc(SCCOc2ccccc2)n1` [CBK103721], the figure is 73.9%; as for `FC(F)(F)c1nc2ccccc2nc1SCCOc1ccccc1` [CBK103726], 102%; as for `CCN(CC)C(=O)CN1C(=O)C2(Nc3ccccc3C(=O)N2c2ccc(F)cc2)c2ccccc21` (centres unmarked) [CBK103751], 83.3%.
Still for that read-out and setting: the result for `Cc1ccc(C2(O)CC3CCC(C2)N3C(=O)C2CCC2)cc1` (centres unmarked) [CBK103860] reads 99.2%; that for `CC(NC(=O)C(C)(C)C)c1nc(-c2cccnc2)n[nH]1` (centres unmarked) [CBK104007], 94.2%.
Regarding `CC(NC(=O)C(C)(C)C)c1nc(-c2ccncc2)n[nH]1` (centres unmarked) [CBK104074], the viability at 28.5 h, 10 µM is 91.9%.
The same measure, in the same setting: as for `Cn1c(=O)n(CC(=O)NC2CC2)c2cccnc21` [CBK104297], the figure is 98.7%; as for `c1cc(-c2n[nH]c(C3CCNCC3)n2)ccn1` [CBK104676C], 85.2%; as for `O=C1N=C(NC23CC4CC(CC(C4)C2)C3)OC1c1ccccc1` (centres unmarked) [CBK105263], 107%.
Still for that read-out and setting: the result for `CC(C)Nc1nccnc1SCCN(C)C` [CBK105290] reads 92.1%; that for `CC(=O)NCCSc1cc(NC(C)C)ncn1` [CBK105293], 96.8%; that for `CN(C)CCSc1cncc(N2CCCC2)n1` [CBK105294], 104%.
With `CN(C)CCSc1cc(N2CCCC2)ncn1` [CBK105295], the viability at 28.5 h, 10 µM worked out at 116%.
On the same count and under the same terms, as for `CC(=O)NCCSc1cc(C(F)(F)F)ccn1` [CBK105297], the figure is 107%.
For `CC(=O)NCCSc1ccc(C(F)(F)F)cn1` [CBK105298], the viability at 28.5 h, 10 µM stood at 94.3%.
Take `CC(=O)NCCSc1cccc(C(F)(F)F)n1` [CBK105299]: the viability at 28.5 h, 10 µM turned out to be 112%.
For the molecule `FC(F)(F)c1ccnc(SCCc2cnccn2)n1` [CBK105300], the viability at 28.5 h, 10 µM came out at 88.6%.
Same read-out and setting: as for `CCc1[nH]nc(O)c1Cc1c(Cl)cccc1Cl` [CBK105304], the figure is 115%; as for `COCc1[nH]nc(O)c1Cc1c(Cl)cccc1Cl` [CBK105305], 91%; as for `CC(C)Nc1cc(SCCN(C)C)ncn1` [CBK105616], 109%.
Still for that read-out and setting: as for `CC(C)Nc1cc(SCCc2ccccn2)ncn1` [CBK105617], the figure is 97.8%; as for `CC(=O)NCCSc1nc2ccccc2nc1NC(C)C` [CBK105618], 102%.
In the case of `CC(=O)NCCSc1cc(N2CCCC2)ncn1` [CBK105621], the viability at 28.5 h, 10 µM turned out to be 106%.
Turning to `CN(C)C(=S)Oc1ccc2[nH]c3c(c2c1)CCNC31CCN(CCOc2ccccc2)C1` (centres unmarked) [CBK105748], the viability at 28.5 h, 10 µM was found to be 74.8%.
On the same count and under the same terms, as for `Cc1ccccc1NC(=O)NCc1ccccc1` [CBK105833], the figure is 86.8%.

The same series, now with this note: human, hela cells, % viability, bulk resorufin, single well.
With `CC(C)(C)OC(=O)N1CCC2(CC1)OCc1cc(-c3cccc(OCc4ccc(Cl)c(Cl)c4)c3)ccc1O2` [CBK105230], the viability at 28.5 h, 10 µM was 86.6%.
Still for that read-out and setting: the result for `CC(C)(C)OC(=O)N1CCC2(CC1)OCc1cc(-c3cccc(OCC(=O)Nc4ccccc4)c3)ccc1O2` [CBK105255] reads 99.6%; that for `Fc1ccc(OCCOc2ccccc2-c2ccc3c(c2)COC2(CCNCC2)O3)cc1` [CBK105745], 88.7%.

Values taken from paper PMC12040169 (PLOS Biology, 2025).
